Reference: ChEMBL document CHEMBL4330132, “5-Keto-3-cyano-2,4-diaminothiophenes as selective maternal embryonic leucine zipper kinase inhibitors” (Bioorg Med Chem Lett, 2019)

Legend:
[1] = target: Serine/threonine-protein kinase Nek7 (Homo sapiens) (UniProt Q8TDX7); assay: Binding affinity to wild-type human full length NEK7 (M1 to S302 residues) expressed in bacterial expression system assessed as residual binding level at 1 uM by Kinomescan method relative to control
[2] = target: NUAK family SNF1-like kinase 1 (Homo sapiens) (UniProt O60285); assay: Binding affinity to wild-type human partial length ARK5 (E25 to I332 residues) expressed in bacterial expression system assessed as residual binding level at 1 uM by Kinomescan method relative to control
[3] = tested on: Mast/stem cell growth factor receptor Kit (Homo sapiens), P10721 [L576P]; assay: Binding affinity to human partial length KIT L576P mutant (Y545 to D952 residues) expressed in bacterial expression system assessed as residual binding level at 1 uM by Kinomescan method relative to control
[4] = target: Calcium/calmodulin-dependent protein kinase type II subunit alpha (Homo sapiens) (UniProt Q9UQM7); assay: Binding affinity to wild-type human partial length CAMK2A (M1 to K328 residues) expressed in bacterial expression system assessed as residual binding level at 1 uM by Kinomescan method relative to control
[5] = target: Ephrin type-B receptor 3 (Homo sapiens) (UniProt P54753); assay: Binding affinity to wild-type human partial length EPHB3 (Q599 to T928 residues) expressed in bacterial expression system assessed as residual binding level at 1 uM by Kinomescan method relative to control
[6] = target: LIM domain kinase 1 (Homo sapiens) (UniProt P53667); assay: Binding affinity to wild-type human full length LIMK1 (M1 to D647 residues) expressed in bacterial expression system assessed as residual binding level at 1 uM by Kinomescan method relative to control
[7] = target: Cyclin-dependent kinase 8 (Homo sapiens) (UniProt P49336); assay: Binding affinity to wild-type human partial length CDK8 (M1 to T360 residues) expressed in bacterial expression system assessed as residual binding level at 1 uM by Kinomescan method relative to control
[8] = target: Receptor tyrosine-protein kinase erbB-4 (Homo sapiens) (UniProt Q15303); assay: Binding affinity to wild-type human partial length ERBB4 (L690 to K994 residues) expressed in bacterial expression system assessed as residual binding level at 1 uM by Kinomescan method relative to control
[9] = target: Serine/threonine-protein kinase ULK1 (Homo sapiens) (UniProt O75385); assay: Binding affinity to wild-type human partial length ULK1 (M1 to T309 residues) expressed in mammalian expression system assessed as residual binding level at 1 uM by Kinomescan method relative to control
[10] = target: Homeodomain-interacting protein kinase 2 (Homo sapiens) (UniProt Q9H2X6); assay: Binding affinity to wild-type human partial length HIPK2 (M153 to S564 residues) expressed in mammalian expression system assessed as residual binding level at 1 uM by Kinomescan method relative to control
[11] = target: Activin receptor type-1 (Homo sapiens) (UniProt Q04771); assay: Binding affinity to wild-type human ACVR1 (C188 to C509 residues) expressed in bacterial expression system assessed as residual binding level at 1 uM by Kinomescan method relative to control
[12] = target: Calcium/calmodulin-dependent protein kinase kinase 1 (Homo sapiens) (UniProt Q8N5S9); assay: Binding affinity to wild-type human partial length CAMKK1 (R65 to E414 residues) expressed in bacterial expression system assessed as residual binding level at 1 uM by Kinomescan method relative to control
[13] = target: Serine/threonine-protein kinase 16 (Homo sapiens) (UniProt O75716); assay: Binding affinity to wild-type human partial length STK16 (G11 to I305 residues) expressed in bacterial expression system assessed as residual binding level at 1 uM by Kinomescan method relative to control
[14] = tested on: Epidermal growth factor receptor (Homo sapiens), P00533 [T790M]; assay: Binding affinity to human partial length EGFR T790M mutant (R669 to G1022 residues) expressed in mammalian expression system assessed as residual binding level at 1 uM by Kinomescan method relative to control
[15] = target: Hepatocyte growth factor receptor (Homo sapiens) (UniProt P08581); assay: Binding affinity to wild-type human partial length MET (D1010 to S1367 residues) expressed in bacterial expression system assessed as residual binding level at 1 uM by Kinomescan method relative to control
[16] = target: Mast/stem cell growth factor receptor Kit (Homo sapiens) (UniProt P10721); assay: Binding affinity to wild-type human partial length KIT (I571 to D952 residues) expressed in bacterial expression system assessed as residual binding level at 1 uM by Kinomescan method relative to control
[17] = target: Serine/threonine-protein kinase BRSK1 (Homo sapiens) (UniProt Q8TDC3); assay: Binding affinity to wild-type human partial length BRSK1 (M1 to E754 residues) expressed in bacterial expression system assessed as residual binding level at 1 uM by Kinomescan method relative to control
[18] = target: Microtubule-associated serine/threonine-protein kinase 1 (Homo sapiens) (UniProt Q9Y2H9); assay: Binding affinity to wild-type human partial length MAST1 (S346 to V730 residues) expressed in mammalian expression system assessed as residual binding level at 1 uM by Kinomescan method relative to control
[19] = target: Platelet-derived growth factor receptor beta (Homo sapiens) (UniProt P09619); assay: Binding affinity to wild-type human partial length PDGFRB (V582 to Y1009 residues) expressed in bacterial expression system assessed as residual binding level at 1 uM by Kinomescan method relative to control
[20] = target: Serine/threonine-protein kinase pim-2 (Homo sapiens) (UniProt Q9P1W9); assay: Binding affinity to wild-type human partial length PIM2 (M1 to E291 residues) expressed in bacterial expression system assessed as residual binding level at 1 uM by Kinomescan method relative to control
[21] = target: Bone morphogenetic protein receptor type-1A (Homo sapiens) (UniProt P36894); assay: Binding affinity to wild-type human partial length BMPR1A (Q214 to I532 residues) expressed in bacterial expression system assessed as residual binding level at 1 uM by Kinomescan method relative to control
[22] = target: Cyclin-dependent kinase 5 (Homo sapiens) (UniProt Q00535); assay: Binding affinity to wild-type human full length CDK5 (M1 to P292 residues) expressed in bacterial expression system assessed as residual binding level at 1 uM by Kinomescan method relative to control
[23] = target: MAP kinase-interacting serine/threonine-protein kinase 2 (Homo sapiens) (UniProt Q9HBH9); assay: Binding affinity to wild-type human partial length MKNK2 (G63 to S388 residues) expressed in mammalian expression system assessed as residual binding level at 1 uM by Kinomescan method relative to control
[24] = target: Ribosomal protein S6 kinase alpha-4 (Homo sapiens) (UniProt O75676); assay: Binding affinity to wild-type human partial length N-terminal RPS6KA4 kinase domain 1 expressed in bacterial expression system assessed as residual binding level at 1 uM by Kinomescan method relative to control
[25] = target: Mitogen-activated protein kinase 15 (Homo sapiens) (UniProt Q8TD08); assay: Binding affinity to wild-type human partial length ERK8 (M1 to P437 residues) expressed in bacterial expression system assessed as residual binding level at 1 uM by Kinomescan method relative to control

Platelet-derived growth factor receptor beta (Homo sapiens), sequence (P09619 whole entry, the tested form may be a part): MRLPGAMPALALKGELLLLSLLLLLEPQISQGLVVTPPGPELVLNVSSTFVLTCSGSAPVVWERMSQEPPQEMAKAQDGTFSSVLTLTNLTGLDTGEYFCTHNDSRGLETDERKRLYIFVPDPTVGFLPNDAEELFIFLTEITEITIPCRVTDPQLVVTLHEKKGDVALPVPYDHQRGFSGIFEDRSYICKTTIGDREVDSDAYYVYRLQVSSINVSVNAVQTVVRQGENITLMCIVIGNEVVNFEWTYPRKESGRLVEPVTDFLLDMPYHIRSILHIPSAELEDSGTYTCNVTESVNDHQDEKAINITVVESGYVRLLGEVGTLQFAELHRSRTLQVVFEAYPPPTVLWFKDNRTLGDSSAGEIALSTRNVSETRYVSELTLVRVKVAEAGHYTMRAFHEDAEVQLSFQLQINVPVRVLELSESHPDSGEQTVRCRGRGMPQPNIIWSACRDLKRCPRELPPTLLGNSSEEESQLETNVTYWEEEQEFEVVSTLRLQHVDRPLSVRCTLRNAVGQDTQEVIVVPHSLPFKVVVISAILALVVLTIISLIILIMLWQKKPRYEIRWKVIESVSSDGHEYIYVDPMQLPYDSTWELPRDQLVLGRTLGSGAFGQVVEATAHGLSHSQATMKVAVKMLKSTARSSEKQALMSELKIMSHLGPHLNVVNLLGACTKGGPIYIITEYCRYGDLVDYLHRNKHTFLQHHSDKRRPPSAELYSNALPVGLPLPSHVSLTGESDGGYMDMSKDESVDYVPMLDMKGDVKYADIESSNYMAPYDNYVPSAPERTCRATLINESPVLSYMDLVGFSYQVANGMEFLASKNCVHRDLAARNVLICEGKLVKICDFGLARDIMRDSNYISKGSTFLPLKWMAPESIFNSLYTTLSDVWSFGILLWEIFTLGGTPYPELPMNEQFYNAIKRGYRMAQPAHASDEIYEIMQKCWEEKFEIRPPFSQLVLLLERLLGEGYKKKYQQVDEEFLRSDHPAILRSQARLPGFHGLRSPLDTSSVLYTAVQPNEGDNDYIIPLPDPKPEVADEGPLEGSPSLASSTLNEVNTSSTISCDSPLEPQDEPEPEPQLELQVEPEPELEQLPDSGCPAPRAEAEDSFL
LIM domain kinase 1 (Homo sapiens), sequence (P53667 whole entry, looked up, the tested form may be a part): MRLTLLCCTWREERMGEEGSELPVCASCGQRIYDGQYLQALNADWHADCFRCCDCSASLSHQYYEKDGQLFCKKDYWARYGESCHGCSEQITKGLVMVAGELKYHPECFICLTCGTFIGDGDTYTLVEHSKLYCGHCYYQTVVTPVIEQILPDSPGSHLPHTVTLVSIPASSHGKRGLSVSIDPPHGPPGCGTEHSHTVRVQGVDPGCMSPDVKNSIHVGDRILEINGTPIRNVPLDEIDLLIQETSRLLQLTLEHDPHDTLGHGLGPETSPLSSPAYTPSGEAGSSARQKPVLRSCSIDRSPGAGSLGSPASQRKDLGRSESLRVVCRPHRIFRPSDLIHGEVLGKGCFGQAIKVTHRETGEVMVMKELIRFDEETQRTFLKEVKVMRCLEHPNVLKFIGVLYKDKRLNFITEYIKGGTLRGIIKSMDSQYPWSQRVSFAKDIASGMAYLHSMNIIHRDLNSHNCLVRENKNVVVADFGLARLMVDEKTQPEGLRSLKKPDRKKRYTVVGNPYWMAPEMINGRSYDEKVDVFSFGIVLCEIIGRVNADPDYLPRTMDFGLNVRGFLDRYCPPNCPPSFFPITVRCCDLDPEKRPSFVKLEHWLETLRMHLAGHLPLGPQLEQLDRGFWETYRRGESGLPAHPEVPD
Ribosomal protein S6 kinase alpha-4 (Homo sapiens), sequence (O75676 whole entry, looked up, the tested form may be a part): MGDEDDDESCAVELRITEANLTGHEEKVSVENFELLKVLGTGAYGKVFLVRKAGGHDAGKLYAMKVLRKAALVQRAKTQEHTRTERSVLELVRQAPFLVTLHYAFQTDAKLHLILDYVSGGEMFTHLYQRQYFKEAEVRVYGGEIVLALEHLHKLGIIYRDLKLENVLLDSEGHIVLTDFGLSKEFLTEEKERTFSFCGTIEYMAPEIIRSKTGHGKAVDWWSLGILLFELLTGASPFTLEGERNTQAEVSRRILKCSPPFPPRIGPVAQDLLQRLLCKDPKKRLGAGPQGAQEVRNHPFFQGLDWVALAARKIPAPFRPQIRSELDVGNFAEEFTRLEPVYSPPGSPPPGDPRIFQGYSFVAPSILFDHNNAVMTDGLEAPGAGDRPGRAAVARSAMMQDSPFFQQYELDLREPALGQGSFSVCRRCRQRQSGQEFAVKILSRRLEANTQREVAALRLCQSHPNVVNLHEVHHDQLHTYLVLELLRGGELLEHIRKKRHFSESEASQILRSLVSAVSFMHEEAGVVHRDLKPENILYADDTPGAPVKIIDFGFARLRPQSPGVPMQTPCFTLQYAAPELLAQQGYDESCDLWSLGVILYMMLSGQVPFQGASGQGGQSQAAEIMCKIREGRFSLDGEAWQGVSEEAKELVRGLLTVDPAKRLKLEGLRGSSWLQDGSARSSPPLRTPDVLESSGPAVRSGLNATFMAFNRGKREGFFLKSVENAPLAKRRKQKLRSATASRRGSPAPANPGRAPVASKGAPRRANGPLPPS
Serine/threonine-protein kinase BRSK1 (Homo sapiens), sequence (Q8TDC3 whole entry, the tested form may be a part): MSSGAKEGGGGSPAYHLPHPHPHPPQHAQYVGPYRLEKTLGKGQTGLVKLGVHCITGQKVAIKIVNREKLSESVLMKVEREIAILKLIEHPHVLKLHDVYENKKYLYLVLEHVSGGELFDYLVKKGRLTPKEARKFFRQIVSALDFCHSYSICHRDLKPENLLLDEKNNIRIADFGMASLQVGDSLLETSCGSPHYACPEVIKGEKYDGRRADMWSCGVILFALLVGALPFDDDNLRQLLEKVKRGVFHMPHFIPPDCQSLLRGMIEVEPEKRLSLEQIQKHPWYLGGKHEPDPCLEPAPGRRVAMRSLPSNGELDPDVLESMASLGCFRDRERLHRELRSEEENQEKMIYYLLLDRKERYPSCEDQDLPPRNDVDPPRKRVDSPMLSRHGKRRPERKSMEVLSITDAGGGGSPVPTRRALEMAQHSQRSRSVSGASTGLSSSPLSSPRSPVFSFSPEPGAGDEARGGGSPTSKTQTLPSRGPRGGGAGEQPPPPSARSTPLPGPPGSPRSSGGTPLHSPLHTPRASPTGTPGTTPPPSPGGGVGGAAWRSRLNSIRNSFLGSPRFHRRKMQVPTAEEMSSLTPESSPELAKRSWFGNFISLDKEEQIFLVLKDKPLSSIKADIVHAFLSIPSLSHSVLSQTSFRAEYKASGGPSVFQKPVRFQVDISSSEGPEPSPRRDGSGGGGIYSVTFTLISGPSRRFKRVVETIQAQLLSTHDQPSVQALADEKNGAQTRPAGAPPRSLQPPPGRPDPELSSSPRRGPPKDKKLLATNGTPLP
Bone morphogenetic protein receptor type-1A (Homo sapiens), sequence (P36894 whole entry, the tested form may be a part): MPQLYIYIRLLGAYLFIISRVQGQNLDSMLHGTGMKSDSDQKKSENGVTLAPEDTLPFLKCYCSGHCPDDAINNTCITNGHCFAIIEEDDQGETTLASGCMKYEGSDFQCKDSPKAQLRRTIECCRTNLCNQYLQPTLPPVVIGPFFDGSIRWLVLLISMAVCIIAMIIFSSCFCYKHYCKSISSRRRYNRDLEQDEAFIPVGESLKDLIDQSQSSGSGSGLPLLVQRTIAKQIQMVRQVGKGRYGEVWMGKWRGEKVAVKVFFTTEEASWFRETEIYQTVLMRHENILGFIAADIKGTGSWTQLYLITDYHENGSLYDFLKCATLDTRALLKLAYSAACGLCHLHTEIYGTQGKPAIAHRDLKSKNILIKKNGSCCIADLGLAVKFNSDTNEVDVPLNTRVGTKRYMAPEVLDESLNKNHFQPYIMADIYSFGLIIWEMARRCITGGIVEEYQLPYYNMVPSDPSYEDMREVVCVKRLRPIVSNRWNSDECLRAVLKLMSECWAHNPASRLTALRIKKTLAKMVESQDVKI
NUAK family SNF1-like kinase 1 (Homo sapiens), sequence (O60285 whole entry, the tested form may be a part): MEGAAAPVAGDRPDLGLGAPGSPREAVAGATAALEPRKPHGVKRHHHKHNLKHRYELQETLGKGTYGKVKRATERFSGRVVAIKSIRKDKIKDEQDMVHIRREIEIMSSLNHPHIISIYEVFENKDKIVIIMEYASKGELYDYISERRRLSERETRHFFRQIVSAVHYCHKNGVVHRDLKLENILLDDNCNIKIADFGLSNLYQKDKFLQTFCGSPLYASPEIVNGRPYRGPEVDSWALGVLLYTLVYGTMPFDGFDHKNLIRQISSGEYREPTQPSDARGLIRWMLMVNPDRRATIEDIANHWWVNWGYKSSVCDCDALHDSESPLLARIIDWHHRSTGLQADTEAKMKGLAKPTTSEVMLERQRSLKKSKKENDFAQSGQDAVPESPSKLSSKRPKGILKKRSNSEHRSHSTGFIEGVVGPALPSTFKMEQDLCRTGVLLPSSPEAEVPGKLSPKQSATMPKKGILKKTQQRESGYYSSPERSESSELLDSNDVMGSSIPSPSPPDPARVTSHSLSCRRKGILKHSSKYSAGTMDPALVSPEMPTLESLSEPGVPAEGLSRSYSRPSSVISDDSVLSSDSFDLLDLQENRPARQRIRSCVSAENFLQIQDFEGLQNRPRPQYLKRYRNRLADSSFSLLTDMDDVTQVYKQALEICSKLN
Calcium/calmodulin-dependent protein kinase kinase 1 (Homo sapiens), sequence (Q8N5S9 whole entry, looked up, the tested form may be a part): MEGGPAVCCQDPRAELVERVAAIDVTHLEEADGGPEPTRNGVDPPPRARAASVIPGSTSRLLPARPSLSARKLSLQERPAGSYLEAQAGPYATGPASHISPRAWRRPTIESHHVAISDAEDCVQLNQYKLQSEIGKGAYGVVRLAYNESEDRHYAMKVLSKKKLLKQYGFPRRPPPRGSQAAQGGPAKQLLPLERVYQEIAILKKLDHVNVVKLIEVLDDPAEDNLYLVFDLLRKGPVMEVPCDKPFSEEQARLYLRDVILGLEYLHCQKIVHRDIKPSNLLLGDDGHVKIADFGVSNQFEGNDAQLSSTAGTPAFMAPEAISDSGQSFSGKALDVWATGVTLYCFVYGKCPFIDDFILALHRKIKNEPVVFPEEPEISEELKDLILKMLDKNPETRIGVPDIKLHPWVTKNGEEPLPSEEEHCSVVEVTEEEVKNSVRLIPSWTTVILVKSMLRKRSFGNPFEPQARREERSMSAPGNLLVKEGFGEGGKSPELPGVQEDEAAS

Structure (SMILES): CC(C)Nc1sc(C(=O)c2ccc(Cl)s2)c(N)c1C#N
- Activity [1]: 84%
- Activity [2]: 82%
- Activity [3]: 64%
- Activity [4]: 90%
- Activity [5]: 94%
- Activity [6]: 55%
- Activity [7]: 84%
- Activity [8]: 100%
- Activity [9]: 92%
- Activity [10]: 94%
- Activity [11]: 47%
- Activity [12]: 72%
- Activity [13]: 85%
- Activity [14]: 66%
- Activity [15]: 68%
- Activity [16]: 76%
- Activity [17]: 92%
- Activity [18]: 100%
- Activity [19]: 54%
- Activity [20]: 100%
- Activity [21]: 100%
- Activity [22]: 100%
- Activity [23]: 100%
- Activity [24]: 100%
- Activity [25]: 82%
